# From patent US10030027B2, “Soluble guanylate cyclase stimulators” (MERCK SHARP & DOHME CORP., priority 2015, dated 2018)
# Assays:
# sGC α1/β1 heterodimer = sGC α1/β1 heterodimer (Homo sapiens (Human), UniProt Q02108+Q02153); test: Cell-based sGC functional assay (cyclic GMP assay for sGC activator: CASA assay); set-up: % Activation: concentration or dose not given beside the values; settings: CHO-K1/sGC cells; for Emax: CHO-K1, activity expressed as percentage of compound A (standard), read-out: % Activation; for EC50: inflection point, 4P fit, read-out: IP
# Summary of the method: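 CHO-K1 cells stably expressing human sGC α1/β1 were pre-incubated 30 min at 25° C with or without 1 μM DETA-NO, then exposed to compound for 1 hr at 37° C with 0.5 mM IBMX and 2.5% DMSO final. Intracellular cGMP was measured by HTRF, expressed as % of reference sGC-HDA maximum; inflection point and maximum fold induction came from 4-parameter fits.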
# [1] = target: human recombinant sGC enzyme (Homo sapiens (Human), UniProt Q02108+Q02153); test: Size Exclusion Chromatography (SEC) competition binding assay using [3H] Ex-77B as the radioligand; settings: [3H] Ex-77B radioligand, 24 hours at 37° C.
# Protocol: Binding Assay: The binding potencies of sGC compounds to the human recombinant sGC enzyme were determined in a Size Exclusion Chromatography (SEC) competition binding assay using [^3H] Ex-77B as the radioligand. [^3H] Ex-77B was prepared using a standardardized tritium exchange procedure. The parent (non-labeled) molecule was first iodinated then a Pd-catalyzed iodine to tritium exchange provided the labeled compound. […] Assays were conducted in 96-well plates in a total volume of 200 μL. […] Non-specific binding was defined by competition with 1 μM of Ex-77B. After the incubation period, the binding mixtures were loaded onto the gel-filtration plate (ThermoFischer Cat. No. 89808) pre-equilibrated with binding buffer and spun at 1000×g for 3 min at 4° C. on a Bench top centrifuge. The collected eluates in White Frame Clear Well Isoplates (Perkin Elmer Cat #6005040) received 100 μl of UltimaGold scintillation cocktail. The sealed plates were shaken vigorously and span, and counted after 6 hours with a Wallac Microbeta TriLux 1450 LSC & Luminescence Counter (Perkin Elmer). Data from competition experiments were analyzed to determine Ki values using one site fit Ki equation.
Emax (sGC α1/β1 heterodimer) [%],EC50 (sGC α1/β1 heterodimer) [nM],Ki [1] [nM],% Activation (sGC α1/β1 heterodimer; activity expressed as percentage of compound A (standard)) [%],Structure (SMILES)
83.4,557,0.252,–,"CC(C)(Cc1coc(C2(C)C(=O)Nc3nc(-c4nn(Cc5ccc(F)cc5)c5cc(Cl)ccc45)nc(N)c32)n1)C(=O)O (stereo not drawn) [Example 173A, 3-(2-{4-amino-2-[6-chloro-1-(4-fluorobenzyl)-1H-indazol-3-yl]-5-methyl-6-oxo-6,7-dihydro-5H-pyrrolo[2,3-d]pyrimidin-5-yl}-1,3-oxazol-4-yl)-2,2-dimethyl-propanoic acid]"
104,577,0.091,–,"CC(C)(Cc1coc(C2(C)C(=O)Nc3nc(-c4nn(CC5CCCC5)c5ncccc45)nc(N)c32)n1)C(=O)O (stereo not drawn) [Example 154A, 3-(2-{4-amino-2-[1-(cyclopentyl-methyl)-1H-pyrazolo[3,4-b]pyridin-3-yl]-5-methyl-6-oxo-6,7-dihydro-5H-pyrrolo[2,3-d]pyrimidin-5-yl}-1,3-oxazol-4-yl)-2,2-dimethyl-propanoic acid]"
104,807,0.32,–,"CC(C)(Cc1coc(C2(C)C(=O)Nc3nc(-c4nn(CC5CCCCO5)c5cc(F)ccc45)nc(N)c32)n1)C(=O)O (single isomer, unassigned) [Example 134AA, 3-{2-[4-amino-2-{6-fluoro-1-[tetrahydro-2H-pyran-2-ylmethyl]-1H-indazol-3-yl}-5-methyl-6-oxo-6,7-dihydro-5H-pyrrolo[2,3-d]pyrimidin-5-yl]-1,3-oxazol-4-yl}-2,2-dimethylpropanoic acid]"
82.9,391,0.299,–,"CC(C)(Cn1cc(C2(C)C(=O)Nc3nc(-c4nn(Cc5ccccc5F)c5ncccc45)nc(N)c32)cn1)C(=O)O (stereo not drawn) [Example 145A, 3-(4-{4-amino-2-[1-(2-fluoro-benzyl)-1H-pyrazolo [3,4-b]pyridin-3-yl]-5-methyl-6-oxo-6,7-dihydro-5H-pyrrolo[2,3-d]pyrimidin-5-yl}-1H-pyrazol-1-yl)-2,2-dimethyl-propanoic acid]"
103,1040,0.116,–,"CC(C)(Cn1cc(C2(C)C(=O)Nc3nc(-c4nn(Cc5ccccc5F)c5cc(F)ccc45)nc(N)c32)cn1)C(=O)O (stereo not drawn) [Example 192A, 3-(4-{4-amino-2-[6-fluoro-1-(2-fluorobenzyl)-1H-indazol-3-yl]-5-methyl-6-oxo-6,7-dihydro-5H-pyrrolo[2,3-d]pyrimidin-5-yl}-1H-pyrazol-1-yl)-2,2-dimethyl-propanoic acid]"
139,289,0.101,–,"C[C@@]1(c2ccc(CCC(=O)O)cc2)C(=O)Nc2nc(-c3nn(Cc4cccc(F)c4)c4cc(Cl)ccc34)nc(N)c21 [Example 69B, (S)-3-(4-{4-amino-2-[6-chloro-1-(3-fluorobenzyl)-1H-indazol-3-yl]-5-methyl-6-oxo-6,7-dihydro-5H-pyrrolo[2,3-d]pyrimidin-5-yl}phenyl)propanoic acid]"
87.8,238,0.123,–,"Nc1nc(-c2nn(Cc3ccccc3F)c3ncccc23)nc2c1C(c1ccc(CCC(=O)O)cc1)(C1CC1)C(=O)N2 (stereo not drawn) [Example 148A, 3-(4-{4-amino-5-cyclopropyl-2-[1-(2-fluorobenzyl)-1H-pyrazolo[3,4-b]pyridin-3-yl]-6-oxo-6,7-dihydro 5H-pyrrolo[2,3-d]pyrimidin-5-yl}phenyl)propanoic acid]"
84,1050,0.951,–,"CC(C)(Cc1ccc(C2(C)C(=O)Nc3nc(-c4nn(CCCC(F)(F)F)c5cc(Cl)ccc45)nc(N)c32)cc1)C(=O)O (stereo not drawn) [Example 42B, 3-(4-{4-amino-2-[6-chloro-1-(4,4,4-trifluorobutyl)-1H-indazol-3-yl]-5-methyl-6-oxo-6,7-dihydro-5H-pyrrolo[2,3-d]pyrimidin-5-yl}phenyl)-2,2-dimethylpropanoic acid]"
83,254,0.395,–,"CC1(c2nn(CC(=O)O)c(=O)o2)C(=O)Nc2nc(-c3nn(CCC(F)(F)C(F)(F)F)c4cc(Cl)ccc34)nc(N)c21 (stereo not drawn) [Example 98A, [5-{4-Amino-2-[6-chloro-1-(3,3,4,4,4-pentafluorobutyl)-1H-indazol-3-yl]-5-methyl-6-oxo-6,7-dihydro-5H-pyrrolo[2,3-d]pyrimidin-5-yl}-2-oxo-1,3,4-oxadiazol-3(2H)-yl]acetic acid]"
96.2,1180,0.258,–,"Cc1cccc(Cn2nc(-c3nc(N)c4c(n3)NC(=O)C4(C)c3cnn(CC(C)(C)C(=O)O)c3)c3ccc(F)cc32)c1F (stereo not drawn) [Example 211A, 3-(4-{4-amino-2-[6-fluoro-1-(2-fluoro-3-methyl-benzyl)-1H-indazol-3-yl]-5-methyl-6-oxo-6,7-dihydro-5H-pyrrolo[2,3-d]pyrimidin-5-yl}-1H-pyrazol-1-yl)-2,2-dimethyl-propanoic acid]"
94,2560,4.38,–,"COCCn1nc(-c2nc(N)c3c(n2)NC(=O)[C@@]3(C)c2ccc(CCC(=O)O)cc2)c2ccc(Cl)cc21 (single isomer, unassigned) [Example 40B]"
124,429,0.116,–,"CC(C)(Cc1coc(C2(C)C(=O)Nc3nc(-c4nn(Cc5ccc(F)cc5F)c5cc(Cl)ccc45)nc(N)c32)n1)C(=O)O (stereo not drawn) [Example 178A, 3-(2-{4-amino-2-[6-chloro-1-(2,4-difluorobenzyl)-1H-indazol-3-yl]-5-methyl-6-oxo-6,7-dihydro-5H-pyrrolo[2,3-d]pyrimidin-5-yl}-1,3-oxazol-4-yl)-2,2-dimethyl-propanoic acid]"
88,2210,4.49,–,"Cc1ccc2c(-c3nc(N)c4c(n3)NC(=O)[C@@]4(C)c3ccc(CCC(=O)O)cc3)nn(CCCC(F)(F)F)c2n1 [Example 20B, (S)-3-(4-{4-amino-5-methyl-2-[6-methyl-1-(4,4,4-trifluorobutyl)-1H-pyrazolo[3,4-b]pyridin-3-yl]-6-oxo-6,7-dihydro-5H-pyrrolo[2,3-d]pyrimidin-5-yl}phenyl)propanoic acid]"
82.1,94,0.062,–,"CC1(c2nc(-c3ccc(C(=O)O)cc3)co2)C(=O)Nc2nc(-c3nn(Cc4ccccc4F)c4ncccc34)nc(N)c21 (stereo not drawn) [Example 146A, 4-(2-{4-amino-2-[1-(2-fluorobenzyl)-1H-pyrazolo[3,4-b]pyridin-3-yl]-5-methyl-6-oxo-6,7-dihydro-5H-pyrrolo [2,3-d]pyrimidin-5-yl}-1,3-oxazol-4-yl)benzoic acid]"
98.5,51,0.117,–,"CC1(c2ccc(CCC(=O)O)cn2)C(=O)Nc2nc(-c3nn(Cc4ccccc4F)c4cc(Cl)ccc34)nc(N)c21 (stereo not drawn) [Example 129A, 3-(6-{4-amino-2-[6-chloro-1-(2-fluorobenzyl)-1H-indazol-3-yl]-5-methyl-6-oxo-6,7-dihydro-5H-pyrrolo[2,3-d]pyrimidin-5-yl}pyridin-3-yl)propanoic acid]"
93.1,1220,0.594,–,"CC(C)(Cn1cc(C2(C)C(=O)Nc3nc(-c4nn(CCC(F)(F)C(F)(F)F)c5ncccc45)nc(N)c32)cn1)C(=O)O (stereo not drawn) [Example 144A, 3-(4-{4-amino-5-methyl-6-oxo-2-[1-(3,3,4,4,4-pentafluorobutyl)-1H-pyrazolo[3,4-b]pyridin-3-yl]-6,7-dihydro-5H-pyrrolo [2,3-d]pyrimidin-5-yl}-1H-pyrazol-1-yl)-2,2-dimethyl-propanoic acid]"
–,74,0.1,89.0,"CC1CCC(Cn2nc(-c3nc(N)c4c(n3)NC(=O)C4(C)c3nc(CC(C)(C)C(=O)O)co3)c3cccnc32)CC1 (single isomer, unassigned) [Example 126AA, 3-{2-[4-amino-5-methyl-2-{1-[4-methylcyclohexylmethyl]-1H-pyrazolo[3,4-b]pyridin-3-yl}-6-oxo-6,7-dihydro-5H-pyrrolo[2,3-d]pyrimidin-5-yl]-1,3-oxazol-4-yl}-2,2-dimethylpropanoic acid]"
127,439,0.099,–,"CC1(c2nc(-c3ccc(C(=O)O)cc3)co2)C(=O)Nc2nc(-c3nn(Cc4ccccc4F)c4cc(Cl)ccc34)nc(N)c21 (stereo not drawn) [Example 164A, 4-(2-{4-amino-2-[6-chloro-1-(2-fluorobenzyl)-1H-indazol-3-yl]-5-methyl-6-oxo-6,7-dihydro-5H-pyrrolo[2,3-d]pyrimidin-5-yl}-1,3-oxazol-4-yl) benzoic acid]"
135,1220,0.094,–,"CC(C)(Cn1cc(C2(C)C(=O)Nc3nc(-c4nn(Cc5ccccc5F)c5cc(Cl)ccc45)nc(N)c32)cn1)C(=O)O (stereo not drawn) [Example 171A, 3-(4-{4-amino-2-[6-chloro-1-(2-fluorobenzyl)-1H-indazol-3-yl]-5-methyl-6-oxo-6,7-dihydro-5H-pyrrolo[2,3-d]pyrimidin-5-yl}-1H-pyrazol-1-yl)-2,2-dimethyl-propanoic acid]"
